Blank lines part the entries; values can stand above or below the molecule they belong to. Where a SMILES comes first, the peptide text is derived from it. [ ]: non-standard residue; d: D form.
Key:
Type in all cases: cell-based
[1] = molecular target: T1, FPR (Homo sapiens, UniProt P21462); experiment: ERK phosphorylation in FPR-expressing RBL-2H3 cells (immunoblot); settings: pretreatment prior to 1 μM WKYMVm, PTX 100 ng/ml, LY294002 50 μM, GFX 5 μM, BAPTA/AM 10 μM, PD98059 50 μM
T1 construct: expressed in transfected cells; host or cells: RBL-2H3 (rat basophilic leukemia) cells, G418-selected
T1 sequence (P21462 1-350): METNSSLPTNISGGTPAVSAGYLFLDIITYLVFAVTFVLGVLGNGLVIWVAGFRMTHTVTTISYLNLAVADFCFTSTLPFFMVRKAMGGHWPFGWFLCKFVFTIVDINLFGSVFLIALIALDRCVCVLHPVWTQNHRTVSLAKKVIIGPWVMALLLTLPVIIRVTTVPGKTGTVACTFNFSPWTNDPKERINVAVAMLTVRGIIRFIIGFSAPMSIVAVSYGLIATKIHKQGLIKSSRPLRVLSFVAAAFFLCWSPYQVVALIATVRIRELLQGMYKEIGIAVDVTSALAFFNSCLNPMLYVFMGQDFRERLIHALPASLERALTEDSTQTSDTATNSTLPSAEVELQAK
Method: (§1) Cultured RBL-2H3 cells were aliquoted into 2×10^6 cells and stimulated with the indicated concentrations of WKYMVm and the peptides of the present invention for the indicated lengths of time. FPR- or FPRL1-expressing RBL-2H3 cells were stimulated with 1 μM WKYMVm for various periods of time (FIG. 3A). Two cells were preincubated with a vehicle or 100 ng/ml of PTX (24 hr), 50 μM of LY294002 (15 min), 5 μM of GFX (15 min), 10 μM BAPTA/AM (60 min), or 50 μM PD98059 (60 min) prior to 1 μM of WKYMVm treatment (FIG. 3B). FPR- or FPRL1-expressing RBL2H3 cells were stimulated with 10 μM of the peptides of the present invention for 2 min or 5 min, respectively (FIG. 3C).
(§2) After stimulation, the cells were washed with serum-free RPMI and lysed in a lysis buffer (20 mM Hepes, pH 7.2, 10% glycerol, 150 mM NaCl, 1% Triton X-100, 50 mM NaF, 1 mM Na3VO4, 10 μg/ml leupeptin, 10 μg/ml aprotinin, and 1 mM phenylmethylsulfonyl fluoride). The detergent-insoluble materials were pelleted by centrifugation (12,000×g, 15 min, at 4° C.), and the soluble supernatant fraction was removed and stored at −80° C. or used immediately. Protein concentrations in the lysates were determined using the Bradford protein assay reagent.
(§3) Each sample ([…] of protein) was subjected to 10% SDS-PAGE and phosphorylated ERK was determined by an immunoblot analysis with an anti-phospho-ERK antibody. Protein samples were prepared for electrophoresis by addition of a concentrated sample buffer. The portions in the samples were then separated by an 10% SDS-polyacrylamide gel using the buffer system described by Laemmli (17).
(§4) Following the electrophoresis, a western blot analysis with an anti-ERK2 antibody was performed to confirm that the same amounts of samples were used for the experiments. The proteins were blotted onto nitrocellulose membranes. The nitrocellulose membranes were then blocked by incubation with TBS (Tris-buffered saline, 0.05% Tween-20) containing 5% non-fat dry milk. Subsequently, the membranes were incubated with anti-phospho-ERK antibody, anti-phospho-Akt antibody or anti-Akt antibody washed with TBS. For a PKC translocation assay, an antibody for PKC isozyme-specific was incubated. Antigen-antibody complexes were visualized after incubating the membrane with a 1:5000 diluted goat anti-rabbit IgG or goat anti-mouse IgG antibody coupled to horseradish peroxidase and using the enhanced chemiluminescence detection system.

[2] = molecular target: T2, FPRL1 (Homo sapiens, UniProt P25090); experiment: ERK phosphorylation in FPRL1-expressing RBL-2H3 cells (immunoblot); settings: pretreatment prior to 1 μM WKYMVm, PTX 100 ng/ml, LY294002 50 μM, GFX 5 μM, BAPTA/AM 10 μM, PD98059 50 μM
T2 construct: expressed in transfected cells; host or cells: RBL-2H3 (rat basophilic leukemia) cells, G418-selected
T2 sequence (P25090 1-351): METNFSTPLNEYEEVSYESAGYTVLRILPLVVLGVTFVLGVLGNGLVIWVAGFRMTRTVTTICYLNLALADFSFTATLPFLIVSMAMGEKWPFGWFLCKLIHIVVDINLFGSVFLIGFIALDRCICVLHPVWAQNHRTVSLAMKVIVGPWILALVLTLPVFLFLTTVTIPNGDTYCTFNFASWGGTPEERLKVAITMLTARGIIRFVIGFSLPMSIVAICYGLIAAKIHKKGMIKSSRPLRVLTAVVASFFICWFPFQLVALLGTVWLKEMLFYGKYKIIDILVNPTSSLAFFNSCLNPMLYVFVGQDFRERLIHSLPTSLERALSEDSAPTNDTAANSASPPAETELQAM
Method: as §1, §2, §3, §4

[3] = molecular target: T1, FPR; experiment: Chemotaxis of FPR-expressing RBL-2H3 cells (modified Boyden chamber); settings: FPR cells; 50 μM LY294002 (15 min), 50 μM PD98059 (60 min); 1 μM WKYMVm
Method: (§5) Chemotaxis assays were performed using multiwell chambers (modified Boyden chamber assay) (Neuroprobe Inc., Gaithersburg, Md.) (18). Briefly, polycarbonate filters (8 μm pore size) were precoated with 50 μg/ml of rat type I collagen (Collaborative Biomedicals) in a HEPES-buffered RPMI 1640 medium. A dry coated filter was placed on a 96-well chamber containing different concentrations of peptides. RBL-2H3 cells expressing FPR or FPRL1 were suspended in RPMI at a concentration of 1×10^6 cells/ml of serum-free RPMI, and 25 μl of the suspension were placed onto the upper well of the 96-well chemotaxis chamber. After incubation for 4 hours at 37° C., non-migrated cells were removed by scraping them out, and cells that migrated across the filter were dehydrated, fixed, and stained with hematoxylin (Sigma, St. Louis, Mo.). The stained cells in five randomly chosen high power fields (HPF) (400×) in that well were then counted. […] The numbers of migrated cells were determined by counting them in a high power field (400×). The Data are presented as means ±SE of three independent experiments each performed in duplicate. The effect of the peptides of the present invention on cellular chemotaxis in FPR- or FPRL1-expressing RBL-2H3 cells was measured. Various concentrations of each peptide were used for the chemotaxis assay with FPR- or FPRL1-expressing RBL-2H3 cells. The numbers of migrated cells were determined by counting them in a high power field (400×). The Data are presented as means ±SE of two independent experiments each performed in duplicates.

[4] = molecular target: T2, FPRL1; experiment: Chemotaxis of FPRL1-expressing RBL-2H3 cells (modified Boyden chamber); settings: FPRL1 cells; 50 μM LY294002 (15 min), 50 μM PD98059 (60 min); 1 μM WKYMVm
Method: as §5

[5] = tested on: human neutrophils; experiment: Superoxide generation in human neutrophils (cytochrome c reduction); settings: cytochrome c reduction
Method: Peripheral blood leukocyte concentrates were donated by the Ulsan Red Cross Blood Center (Ulsan, Korea). Human neutrophils were isolated according to the standard procedures of dextran sedimentation, hypotonic lysis of erythrocytes, and a lymphocyte separation medium gradient as described above (9). The isolated human neutrophils were then used promptly.
The activity of the peptides, WKYMVm, peptides of SEQ ID NOs: 1 to 24, and wkymvm on superoxide generation in human neutrophils was measured. Superoxide anion generation was quantified by measuring reduction of cytochrome c using a microtiter 96-well plate ELISA reader (Bio-Tekinstruments, EL312e, Winooski, Vt.) as described (14). The human neutrophils (1×10^6 cells/100 μl of RPMI 1640 medium per well of a 96-well plate) were preincubated with 50 μM cytochrome c at 37° C. for 1 min and then incubated with the indicated concentrations of peptides. The superoxide generation was measured as a change in light absorption at 550 nm over 5 minutes at 1 min intervals. From at least four independent experiments, peptides with active amino acids at each position were chosen.

[6] = molecular target: T1, FPR; experiment: [Ca2+]i increase in FPR-expressing RBL-2H3 cells (fura-2)
[7] = molecular target: T2, FPRL1; experiment: [Ca2+]i increase in FPRL1-expressing RBL-2H3 cells (fura-2)
Method: […] The level of [Ca^2+]i was determined fluorometrically by Grynkiewicz's method using fura-2/AM (15). Briefly, prepared cells were incubated with 3 μM fura-2/AM at 37° C. for 50 min in a fresh serum-free RPMI 1640 medium under continuous stirring. 2×10^6 cells were aliquoted for each assay in Ca^2+-free Locke's solution (154 mM NaCl, 5.6 mM KCl, 1.2 mM MgCl2, 5 mM HEPES, pH 7.3, 10 mM glucose, and 0.2 mM EGTA). Fluorescence changes at the dual excitation wavelengths of 340 nm and 380 nm and the emission wavelength of 500 nm were measured, and the calibrated fluorescence ratio was translated into [Ca^2+]i. The peak level of the increased [Ca^2+]i was monitored.
[…] The level of [Ca^2+]i was determined by the same procedures as above. The peak level of the increased [Ca^2+]i was monitored.

[8] = molecular target: T2, FPRL1; experiment: Exocytosis: β-hexosaminidase secretion in FPRL1-expressing RBL-2H3 cells; settings: FPRL1 cells; 10 μM of each peptide (WKYMVm also various concentrations)
Method: Granule secretion is one of the most important function of mast cells (20). The effect of WKYMVm on granule secretion was checked by measuring β-hexosaminidase secretion as described above (18). Briefly, RBL-2H3 cells (2×10^5/well) expressing FPR or FPRL1 were cultured overnight in a 24-well tissue culture plate. The cells were washed twice with Tyrode's buffer (137 mM NaCl, 12 mM NaHCO3, 5.6 mM glucose, 2.7 mM KCl, 1 mM CaCl2, 0.5 mM MgCl2, 0.4 mM NaH2PO4, 0.1g/100 ml BSA, and 25 mM HEPES, pH 7.4) and stimulated with each peptide. Various concentrations of WKYMVm were treated in FPR- or FPRL1-expressing RBL-2H3 cells (FIG. 5A). 1 μM of WKYMVm was used to stimulate two cell lines in the absence or presence of 10 μM BAPTA/AM (FIG. 5B). The reaction was terminated 20 min after stimulation by placing the plate on ice. Secretion of β-hexosaminidase into the medium was determined by incubating 50 μl of supernatant or cell lysate with 25 μl of 5 mM p-nitrophenyl-N-acetyl-β-D-glucosamide in 0.1 M sodium citrate buffer (pH 3.8) at 37° C. for 2 hr. At the end of the incubation, 50 μl of 0.4 M Na2CO3 were added. Absorbance was monitored at 405 nm. Data are means ±S.E. of a single representative of three experiments performed in triplicate. Values (means ±S.E.) were expressed as a percent of total β-hexosaminidase present in the cells.
10 μM of each peptide was treated in FPR- (FIG. 6A) or FPRL1-expressing RBL-2H3 cells (FIG. 6B). The peptide-induced secretion of β-hexosaminidase was determined as above. Data are means ±S.E. of a single representative of three experiments performed in triplicate.

SMILES: CN(C)CCCn1cc(C2=C(c3c[nH]c4ccccc34)C(=O)NC2=O)c2ccccc21 [GF109203X]
effect of inhibitor pretreatment on WKYMVm-induced ERKs activation [1]: could not effect WKYMVm-induced ERK activation
effect of inhibitor pretreatment on WKYMVm-induced ERKs activation [2]: could not effect WKYMVm-induced ERK activation

effect of inhibitor pretreatment on WKYMVm-induced ERKs activation [1]: sensitive
effect of inhibitor pretreatment on WKYMVm-induced ERKs activation [2]: sensitive
effect of inhibitor pretreatment on WKYMVm-induced cellular chemotaxis [3]: sensitive
effect of inhibitor pretreatment on WKYMVm-induced cellular chemotaxis [4]: sensitive
SMILES: COc1cccc(-c2cc(=O)c3ccccc3o2)c1N [PD98059, reference compound]

SMILES: Cn1cc(C2=C(c3cn(CCCSC(=N)N)c4ccccc34)C(=O)NC2=O)c2ccccc21 [Ro-31-8220]
effect of inhibitor pretreatment on WKYMVm-induced ERKs activation [1]: could not effect WKYMVm-induced ERK activation
effect of inhibitor pretreatment on WKYMVm-induced ERKs activation [2]: could not effect WKYMVm-induced ERK activation

EC50 (nM), intracellular calcium increase ([6]; fura-2 loaded): inactive
SMILES: CSCC[C@H](NC(=O)[C@H](Cc1ccc(O)cc1)NC(=O)[C@H](CCCCN)NC(=O)[C@@H](N)Cc1c[nH]c2ccccc12)C(=O)NCC(=O)N[C@H](CCSC)C(N)=O [WKYMGm-NH2, Trp-Lys-Tyr-Met-Gly-D-Met-NH2] (H-WKYMG[dM]-NH2; N-terminus assumed)
O^2− (nmol/10^6 cells), superoxide generation ([5]; peptide 100 nM): 1.1 ± 0.05 nmol/10^6 cells
O^2− (nmol/10^6 cells), superoxide generation ([5]; peptide 10 μM): 27.3 ± 2.61 nmol/10^6 cells
[Ca^2+]i increasing activity [6]: did not effect a [Ca^2+]i increase until 20 μM treatment
[Ca^2+]i increasing activity [7]: showed [Ca^2+]i-increasing activity in FPRL1 cells, with a little lower affinity to FPRL1

SMILES: CSCC[C@H](NC=O)C(=O)N[C@@H](CC(C)C)C(=O)N[C@@H](Cc1ccccc1)C(=O)O [fMLF, N-formyl-methionyl-leucyl-phenylalanine]
granule secretion / β-hexosaminidase release (words) [8]: but not fMLF or wkymvm, stimulated granule secretion
